Assay results published in patent publication US5244908A, “Imidazopyridine derivatives and their pharmaceutical use” (Takeda Chemical Industries, Ltd., priority 1990, dated 1993).
Where a name gives a salt, the structure may show the parent alone.

How the values were obtained:
[1] = molecular target: calmodulin (Bos taurus, UniProt P62157); test: Calmodulin inhibitory activity (calmodulin-activated cyclic nucleotide phosphodiesterase, [3H]cGMP); format: biochemical; conditions: 10^-5 M
[2] = system: rat heart; test: Effect on incidence of arrhythmia caused by ischemia and following reperfusion in rat heart; format: in vivo; conditions: 1 hour before ligation, until 10 minutes after reperfusion
Procedure: Effect on incidence of arrhythmia caused by ischemia and following reperfusion in rat heart
Male Sprague Dawley rats (Japan Clea) of 9 to 10 weeks old were anesthetized with 50 mg/kg (i.p.) of sodium pentobarbital. The heart was exposed by a left thoractomy under artificial ventilation with room air and silk suture was placed under the main left coronary artery (LAD) to ligate for 5 minutes. Then, the ligature was released again for reperfusion. The incidence of ventricular tachycardia (VT), ventricular fibrillation (VF) and cardiac arrest (CA) caused until 10 minutes after reperfusion were noted. Medicines (compounds obtained in the above Examples) were orally administered (5 ml/kg) at 1 hour before tightening the ligature. The effect of medicines were estimated in comparison with the frequency of a group received a vehicle according to X^2 -test.

Structure (SMILES) | inhibition at 10 µM [1] [%] | other results
CS(=O)(=O)NCCSc1cccc2ncc(CN3CCOCC3)n12 [Compound 14, 5-[2-(methylsulfonylamino)ethylthio]3-morpholinomethylimidazo[1,2-a]pyridine] | 85 | CA (Frequency), cardiac arrest ([2]; 10 mg/kg oral): 0/3; VF (Frequency), ventricular fibrillation ([2]; 10 mg/kg oral): 0/3; VT (Frequency), ventricular tachycardia ([2]; 10 mg/kg oral): 1/3
CS(=O)(=O)NCCCSc1cccc2nccn12 [Compound 27, 5-[3-(Methylsulfonylamino)propylthio]imidazo[1,2-a]pyridine] | 51 | –
O=S(=O)(NCCSc1cccc2nccn12)c1ccccc1 [Compound 30, 5-[2-(Phenylsulfonylamino)ethylthio]imidazo[1,2-a]pyridine] | 64 | –
CC(=O)Nc1ccc(S(=O)(=O)NCCSc2cccc3nccn23)cc1 [Compound 32, 5-[2-[4-(Acetamido)phenylsulfonylamino]ethylthio]imidazo[1,2-a]pyridine] | 62 | CA (Frequency), cardiac arrest ([2]; 30 mg/kg oral): 1/3; VF (Frequency), ventricular fibrillation ([2]; 30 mg/kg oral): 1/3; VT (Frequency), ventricular tachycardia ([2]; 30 mg/kg oral): 1/3
O=S(=O)(NCCSc1cccc2nccn12)c1cc(Cl)c(Cl)cc1Cl [Compound 37, 5-[2-[2,4,5-(Trichloro)phenylsulfonylamino]ethylthio]imidazo[1,2-a]pyridine] | 58 | –
O=S(=O)(NCCSc1cccc2nccn12)c1ccc2ccccc2c1 [Compound 44, 5-[2-[(2-Naphthyl)sulfonylamino]ethylthio]imidazo[1,2-a]pyridine] | 65 | –
CN(C)c1cccc2c(S(=O)(=O)NCCSc3cccc4nccn34)cccc12 [Compound 48, 5-[2-[5-(Dimethylamino)-(1-naphthylsulfonylamino)]ethylthio]imidazo[1,2-a]pyridine] | 50 | –
O=S(=O)(/C=C/c1ccccc1)N(CCSc1cccc2nccn12)S(=O)(=O)/C=C/c1ccccc1 [Compound 50, 5-[2-[N,N-di-(E)-Styrylsulfonylamino]ethylthio]imidazo[1,2-a]pyridine] | 65 | –
CS(=O)(=O)NCC(Oc1cccc2nccn12)c1ccccc1 (centres unmarked) [Compound 74, 5-[2-(Methylsulfonylamino)-1-(phenyl)ethyloxy]imidazo[1,2-a]pyridine] | 50 | –
O=S(=O)(NCCOc1cccc2nccn12)c1cccc2ccccc12 [Compound 78, 5-[2-(1-(Naphthyl)sulfonylamino)ethyloxy]imidazo[1,2-a]pyridine] | 56 | –
O=S(=O)(NCCCOc1cccc2nccn12)c1cccc2ccccc12 [Compound 79, 5-[3-(1-(Naphthyl)sulfonylamino)propyloxy]imidazo[1,2-a]pyridine] | 50 | –
CC(=O)NCCSc1cccc2nccn12 [Compound 83, 5-[2-(acetylamino)ethylthio]imidazo[1,2-a]pyridine] | 76 | –
O=C(NCCSc1cccc2nccn12)c1cccs1 [Compound 89, 5-[2-[(2-Thenoylamino)]ethylthio]imidazo[1,2-a]pyridine] | 54 | –
O=C(NCCSc1cccc2nccn12)NC1CCCCC1 [Compound 105, 5-[2-(Cyclohexylcarbamoylamino)ethylthio]imidazo[1,2-a]pyridine] | 67 | –
CNC(=O)OCCSc1cccc2nccn12 [Compound 118, 5-[2-(methylcarbamoyloxy)ethylthio]imidazo[1,2-a]pyridine] | 74 | CA (Frequency), cardiac arrest ([2]; 30 mg/kg oral): 0/3; VF (Frequency), ventricular fibrillation ([2]; 30 mg/kg oral): 1/3; VT (Frequency), ventricular tachycardia ([2]; 30 mg/kg oral): 1/3
CCCOC(=O)NCCSc1cccc2nccn12 [Compound 130, 5-[2-(Propyloxycarbonylamino)ethylthio]imidazo[1,2-a]pyridine] | 50 | –
C=CCOC(=O)NCCSc1cccc2nccn12 [Compound 135, 5-[2-(Allyloxycarbonylamino)ethylthio]imidazo[1,2-a]pyridine] | 60 | –
O=C(NCCSc1cccc2nccn12)OCC(Cl)(Cl)Cl [Compound 136, 5-[2-[2,2,2-(Trichloro)ethoxycarbonylamino]ethylthio]imidazo[1,2-a]pyridine] | 52 | –
COC(=O)NCCCSc1cccc2nccn12 [Compound 145, 5-[3-(Methoxycarbonylamino)propylthio]imidazo[1,2-a]pyridine] | 63 | –
CC(=O)N(CCCSc1cccc2nccn12)CCNc1ccccc1 [Compound 158, 5-[3-[[2-(Anilino)ethyl]-N-(acetyl)amino]propylthio]imidazo[1,2-a]pyridine] | 81 | –
O=S(=O)(N1CCC(Sc2cccc3nccn23)CC1)C(F)(F)F [Compound 165, 5-[1-(trifluoromethanesulfonyl)4-piperidylthio]imidazo[1,2-a]pyridine] | 65 | –
O=S(=O)(NCCCCSc1cccc2nccn12)c1cccc2ccccc12 [Compound 168, 5-[4-(1-naphthalenesulfonylamino)butylthio]imidazo[1,2-a]pyridine] | 56 | –

More lines, main results first:

inhibition at 10 µM [1] [%] | Structure (SMILES) | other results
50 | CC(C)S(=O)(=O)NCCSc1cccc2nccn12 [Compound 5, 5-[2-(Isopropylsulfonylamino)ethylthio]imidazo[1,2-a]pyridine] | –
100 | CCCCCCCCCCCCCCCCS(=O)(=O)NCCSc1cccc2nccn12 [Compound 9, 5-[2-(Hexadecylsulfonylamino)ethylthio]imidazo[1,2-a]pyridine] | –
66 | CN(C)Cc1cnc2cccc(SCCNS(C)(=O)=O)n12 [Compound 16, 3-Dimethylaminomethyl-5-[2-(methylsulfonylamino)ethylthio]imidazo[1,2-a]pyridine.dihydrochloride] | –
100 | O=S(=O)(NCCSc1cccc2nccn12)C(F)(F)F [Compound 26, 5-[2-(Trifluoromethylsulfonylamino)ethylthio]imidazo[1,2-a]pyridine] | CA (Frequency), cardiac arrest ([2]; 10 mg/kg oral): 1/3; VF (Frequency), ventricular fibrillation ([2]; 10 mg/kg oral): 1/3; VT (Frequency), ventricular tachycardia ([2]; 10 mg/kg oral): 2/3
53 | O=S(=O)(NCCSc1cccc2nccn12)c1ccc(Cl)cc1 [Compound 34, 5-[2-[4-(Chloro)phenylsulfonylamino]ethylthio]imidazo[1,2-a]pyridine] | –
100 | O=S(=O)(NCCSc1cccc2nccn12)c1cccc2ccccc12 [Compound 42, 5-[2-[(1-Naphthyl)sulfonylamino]ethylthio]imidazo[1,2-a]pyridine] | –
83 | CC(=O)Nc1nc(C)c(S(=O)(=O)NCCSc2cccc3nccn23)s1 [Compound 51, 5-[2-[2-(Acetylamino)-4-(methyl)-(5-thiazolyl)sulfonylamino]ethylthio]imidazo[1,2-a]pyridine] | –
62 | Cc1cn2c(SCCNS(=O)(=O)c3cccc4ccccc34)cccc2n1 [Compound 56, 2-Methyl-5-[2-(1-naphthylsulfonylamino)ethylthio]imidazo[1,2-a]pyridine] | –
79 | CS(=O)(=O)NCCOc1cccc2nccn12 [Compound 62, 5-[2-(Methylsulfonylamino)ethyloxy]imidazo[1,2-a]pyridine] | –
55 | O=S(=O)(NCC(Oc1cccc2nccn12)c1ccccc1)C(F)(F)F (centres unmarked) [Compound 75, 5-[[1-(Phenyl)-2-(trifluoromethylsulfonylamino)]ethyloxy]imidazo[1,2-a]pyridine] | –
80 | O=S(=O)(N1CCC(Oc2cccc3nccn23)CC1)C(F)(F)F [Compound 77, 5-[1-(Trifuloromethylsulfonyl)-4-piperidyloxy]imidazo[1,2-a]pyridine] | –
69 | O=C(NCCSc1cccc2nccn12)C(F)(F)F [Compound 84, 5-[2-(Trifluoroacetylamino)ethylthio]imidazo[1,2-a]pyridine] | –
51 | O=C(NCCSc1cccc2nccn12)c1ccccc1 [Compound 87, 5-[2-(Benzoylamino)ethylthio]imidazo[1,2-a]pyridine] | –
56 | CCNC(=O)NCCSc1cccc2nccn12 [Compound 101, 5-[2-(Ethylcarbamoylamino)ethylthio]imidazo[1,2-a]pyridine] | –
52 | CCCNC(=O)NCCSc1cccc2nccn12 [Compound 102, 5-[2-(Propylcarbamoylamino)ethylthio]imidazo[1,2-a]pyridine] | –
52 | CC(C)NC(=O)NCCSc1cccc2nccn12 [Compound 103, 5-[2-(Isopropylcarbamoylamino)ethylthio]imidazo[1,2-a]pyridine] | –
50 | COc1ccc(NC(=S)NCCSc2cccc3nccn23)cc1 [Compound 109, 5-[2-[4-(Methoxy)phenylthiocarbamoylamino]ethylthio]imidazo[1,2-a]pyridine] | –
53 | Cc1cn2c(SCCNC(=S)Nc3ccccc3)cccc2n1 [Compound 115, 2-Methyl-5-[2-(phenylthiocarbamoylamino)ethylthio]imidazo[1,2-a]pyridine] | –
50 | COC(=O)NCCSc1cccc2nccn12 [Compound 128, 5-[2-(methoxycarbonylamino)ethylthio]imidazo[1,2-a]pyridine] | –
50 | CC(C)OC(=O)NCCSc1cccc2nccn12 [Compound 132, 5-[2-(Isopropyloxycarbonylamino)ethylthio]imidazo[1,2-a]pyridine] | –
60 | CC(C)OC(=O)NCCSc1cccc2ncc(CN3CCOCC3)n12 [Compound 144, 5-[2-(Isopropyloxycarbonylamino)ethylthio]-3-(morpholinomethyl)imidazo[1,2-a]pyridine] | –
58 | CC(C)OC(=O)NCCCCSc1cccc2nccn12 [Compound 169, 5-[4-(isopropyloxycarbonylamino)butylthio]imidazo[1,2-a]pyridine] | –
